Results as given in PMC6726534 (Biotechnology and bioengineering, 2019).
Values after ≈ are worked out from the molar mass of the structure shown. Where a SMILES comes first, the peptide text is derived from it.

Legend:
Format in all cases: cell-based
E. coli JJ2489 = settings: JJ2489, 1 h
[1] = tested on: Salmonella enterica serovar Typhimurium ATCC SL1344; settings: ATCC SL1344, 1 h
E. coli FVEC 638 = settings: FVEC 638, 1 h
[2] = tested on: Salmonella Infantis #129 B; settings: 1 h
E. coli J2210 = settings: J2210, 1 h
[3] = tested on: Salmonella enterica serovar Tennessee; settings: 1 h
E. coli JW0013 = settings: JW0013, 1 h
E. coli PUTI 379 = settings: PUTI 379, 1 h
E. coli FVEC 964 = settings: FVEC 964, 1 h
[4] = tested on: Salmonella enterica serovar Newport; settings: 1 h
[5] = tested on: Salmonella enterica serovar Enteritidis MH91989; settings: serovar Enteritidis MH91989, 1 h
[6] = tested on: MDA-MB-231 human breast adenocarcinoma cells; assay: Cytotoxicity assay; settings: 10 μmol/L peptide, 24 h, MTT assay, duplicate, normalized to PBS
[7] = tested on: A431 human epidermoid carcinoma cells; assay: Cytotoxicity assay; settings: 10 μmol/L peptide, 24 h, MTT assay, duplicate, normalized to PBS

SMILES	MIC (E. coli JJ2489)	MIC [1]	MIC (E. coli FVEC 638)	MIC [2]	MIC (E. coli J2210)	MIC [3]	MIC (E. coli JW0013)	MIC (E. coli PUTI 379)	MIC (E. coli FVEC 964)	MIC [4]	MIC [5]	toxicity towards MDA-MB-231 [6]	toxicity to A431 cells [7]
CC[C@H](C)[C@H](NC(=O)[C@H](Cc1ccc(O)cc1)NC(=O)[C@@H](NC(=O)[C@@H]1CCCN1C(=O)[C@H](CCCNC(=N)N)NC(=O)[C@H](CC(N)=O)NC(=O)[C@H](CC(N)=O)NC(=O)CN)C(C)C)C(=O)N1CCC[C@H]1C(=O)N[C@@H](CCC(N)=O)C(=O)N1CCC[C@H]1C(=O)N[C@@H](CCCNC(=N)N)C(=O)N1CCC[C@H]1C(=O)N1CCC[C@H]1C(=O)N[C@@H](Cc1c[nH]cn1)C(=O)N1CCC[C@H]1C(=O)N[C@@H](CCCNC(=N)N)C(=O)N[C@@H](CC(C)C)C(=O)O [Api_WT, reference compound] (H-GNNRPVYIPQPRPPHPRL-OH)	0.031 ± 0.014 µM (≈ 0.0654 µg/mL)	0.048 ± 0.011 µM (≈ 0.101 µg/mL)	0.048 ± 0.011 µM (≈ 0.101 µg/mL)	0.048 ± 0.011 µM (≈ 0.101 µg/mL)	0.048 ± 0.011 µM (≈ 0.101 µg/mL)	0.048 ± 0.011 µM (≈ 0.101 µg/mL)	0.024 ± 0.006 µM (≈ 0.0506 µg/mL)	0.048 ± 0.011 µM (≈ 0.101 µg/mL)	0.048 ± 0.011 µM (≈ 0.101 µg/mL)	0.031 ± 0.014 µM (≈ 0.0654 µg/mL)	0.048 ± 0.011 µM (≈ 0.101 µg/mL)		
CC[C@H](C)[C@H](NC(=O)[C@@H]1CCCN1C(=O)[C@H](CCCCN)NC(=O)[C@@H]1CCCN1C(=O)[C@@H]1CCCN1C(=O)[C@@H](NC(=O)[C@@H]1CCCN1C(=O)[C@H](CCCNC(=N)N)NC(=O)[C@@H]1CCCN1C(=O)[C@H](CCCNC(=N)N)NC(=O)[C@H](Cc1ccc(O)cc1)NC(=O)[C@H](CO)NC(=O)CNC(=O)[C@H](CCCCN)NC(=O)[C@H](CC(=O)O)NC(=O)[C@@H](N)C(C)C)[C@@H](C)O)C(=O)N[C@@H](Cc1ccc(O)cc1)C(=O)N[C@@H](CC(N)=O)C(=O)N[C@@H](CCCNC(=N)N)C(=O)N[C@@H](CC(N)=O)C(=O)O [Pyr_L7R/R14K] (H-VDKGSYRPRPTPPKPIYNRN-OH)												None of these PrAMPs exhibited any toxicity	no toxicity
CC[C@H](C)[C@H](NC(=O)[C@@H]1CCCN1C(=O)[C@H](CCCNC(=N)N)NC(=O)[C@@H]1CCCN1C(=O)[C@@H]1CCCN1C(=O)[C@@H](NC(=O)[C@@H]1CCCN1C(=O)[C@H](CCCNC(=N)N)NC(=O)[C@@H]1CCCN1C(=O)[C@H](CC(C)C)NC(=O)[C@H](Cc1ccc(O)cc1)NC(=O)[C@H](CO)NC(=O)CNC(=O)[C@H](CCCCN)NC(=O)[C@H](CC(=O)O)NC(=O)[C@@H](N)C(C)C)[C@@H](C)O)C(=O)N[C@@H](Cc1ccc(O)cc1)C(=O)N[C@@H](CC(N)=O)C(=O)N[C@@H](CCCNC(=N)N)C(=O)N[C@@H](CC(N)=O)C(=O)O [Pyr_WT, reference compound] (H-VDKGSYLPRPTPPRPIYNRN-OH)												None of these PrAMPs exhibited any toxicity	no toxicity
